Assay results from paper PMC1636466 (Nucleic Acids Research, 2006).

Target: Vent(exo-) DNA polymerase (Thermococcus litoralis, UniProt P30317, D141A/E143A)
Details: natural primer/template PA/T0, 40 °C, supplied reaction buffer, dATP 10–800 μM

Nc1ncnc2c1ncn2[C@H]1C[C@H](O)[C@@H](COP(=O)(O)OP(=O)(O)OP(=O)(O)O)O1 [dATP]
Km: 5.52 µM
